In a melting point compilation (Tetko et al.; mined from patent text by program, amines drawn as free bases though some values may be those of a salt) one finds melting point data, which are given here for 92 molecules.

As usually defined, the melting point is the temperature, or range, at which the solid turns liquid.

Molecules are shown by their SMILES. A value given as a limit tells only on which side of the number the result lay.

In turn, `CC(=O)NCC1CC1c1c(-c2cccnc2)ccc2nn(C)cc12` (configuration not stated) registered a melting point of 136 to 138 °C. In the case of `CCC(=O)Nc1c(C(=O)c2cc(CO)co2)[nH]c2cc(Cl)ccc12` it was 171 to 172 °C; in that of `Cc1cc(-c2cc(C(F)(F)F)n3ncc(C(=O)Nc4cccc(S(=O)(=O)NC5CC5)c4)c3n2)ccc1Cl`, 244 °C; in that of `O=c1[nH]c2cc(Cl)c(Cl)cc2[n+]([O-])c1-c1ccccc1`, 300 to 302 °C. With `c1ccc(CN(Cc2ccccc2)c2c(-c3ccccc3)sc3ccccc23)cc1`, the melting point was in the range of 92 to 93 °C. In the case of `CCCCCC(CC(=O)Nc1cc(C(=O)O)ccc1C(C)(C)C)c1ccc(OC)cc1OC` (configuration not stated) it was 153 to 154 °C; in that of `COc1ccc2c(c1)/C(=C/CNC(C)=O)CCC2`, 92 to 94 °C. In the case of `COCCn1cc(-c2ccccc2)n(C(C)=O)c1=O` it was 73 to 75 °C; in that of `Cc1cccc2sc(=O)[nH]c12`, 207 to 208 °C. In the case of `CC(=NO)c1cc2c3ccccc3[nH]c(=O)n2n1` it was 340 to 342 °C.

In turn, `Cc1ccc(S(=O)(=O)Nc2ccc(Cl)cc2[N+](=O)[O-])cc1` yielded a melting point of 110 to 111 °C. With `CCCCCCN(O)CCCCCC`, the melting point was 67 °C. In the case of `CCN(CC)CCNS(=O)(=O)c1ccc(Nc2cnnc3cc(Cl)ccc23)cc1` it was 175 to 176 °C. In the case of `COc1cc(CN/C=C2\C(=O)NC(=O)c3ccc(Br)cc32)ccc1O` it was 260 to 261 °C; in that of `CO[C@@H]1C=C2C=C3C(=C(C)C(=O)N3C)C[C@]2(C)[C@@H](C)[C@H]1OC(=O)c1ccco1`, 155 to 158 °C. With `CC1=Cc2cc(-c3nnn[nH]3)ccc2OC1(C)C`, the melting point fell in the range of 179 to 181 °C. For the molecule `COc1cccc2ncoc12`, the melting point was 28 to 31 °C. Turning to `c1ccc2c(c1)c1ccccc1n2-c1ccc2c(c1)Oc1ccc(-n3c4ccccc4c4ccccc43)cc1O2`, the melting point was found to be 348 °C. In the case of `COCC12CCC(O)CC1CCC1C3CCC(=O)C3(C)CCC12` (configuration not stated) it was 172 to 174 °C. In the case of `Cc1c(C(=O)c2ccccc2)c(NC(=O)CNO)cn1C` it was 140 to 142 °C.

With `Cc1csc(Cc2ccc(NC(=O)/C=C/c3cnn(C)c3-c3ccc(F)cc3)cc2)n1`, the melting point lay within 217 to 218 °C. `Cc1cccc2nc(CSc3ncnc4[nH]cnc34)n(-c3ccccc3F)c(=O)c12` yielded a melting point of 152 °C.

`C=CCOc1ccccc1-c1nc2nc(SC)nnc2c(=O)[nH]1` yielded a melting point of 238 to 239 °C. The molecule `Cc1cc(-n2cncn2)c2cccc(C)c2n1` displayed a melting point of 99 to 100 °C. In the case of `Cc1cccc(OCC(=O)NCCO[N+](=O)[O-])c1` it was 40 to 42 °C; in that of `CNc1cc2c(cc1OC)OCO2`, 66 °C. In the case of `O=C(NCc1cccs1)c1ccc(CN2C(=O)C3(COc4cc5c(cc43)CCO5)c3ccccc32)cc1` (configuration not stated) it was 167 to 168 °C. In the case of `COC(=O)CCCNC(=O)C(COS(C)(=O)=O)NS(=O)(=O)c1ccc(Cl)cc1` (racemic) it was 95 to 99 °C. On to `CCCc1cc(C(=O)NCCC(=O)O)ccc1OC(C(=O)NS(=O)(=O)c1ccc(C(C)C)cc1)c1ccc2c(c1)OCO2` (configuration not stated), for which the melting point lay in the range of 199 to 201 °C. `COc1cc(-c2cc3ccccc3[nH]2)ccc1OS(=O)(=O)c1ccccc1` had a melting point of 156 °C. In the case of `CSCCNC(N)=Nc1ccccc1N1CCOCC1` it was 115 to 116 °C. In the case of `CC(C)(C)OC(=O)NCCCCC(=O)N[C@@H](CC(=O)OCc1ccccc1)C(=O)N[C@@H](Cc1ccccc1)C(=O)OCc1ccccc1` it was 120 °C; in that of `CCCCCCCCNC(=O)[C@@H]1C[C@H]1c1ccc(NC(=O)/C=C\C(=O)O)cc1` (relative stereo), 178 to 180 °C; in that of `Cc1cccc(-c2nccc(Cl)n2)c1`, 74 to 75 °C. In the case of `N#Cc1ccc2c(c1)OC(=O)C(Br)C2Br` (configuration not stated), the melting point lay in the range of 220 to 230 °C. In the case of `Cn1cccc1Cc1cccc(NC(N)=O)c1` it was 84 to 86 °C; in that of `COc1ccc(C(C#N)Sc2ccccn2)cc1OC` (configuration not stated), 108 to 110 °C; in that of `COc1ccc(CC(C)=O)cc1S(=O)(=O)Cl`, 80 to 81 °C. For the molecule `COc1ccc(CSc2cnccc2C#N)cc1`, the melting point is 80 to 81 °C. In the case of `COC(=O)C(Oc1nc(OC)cc(OC)n1)C(C)(OCc1ccccc1)c1ccccc1` (configuration not stated) it was 115 to 117 °C. In the case of `O=C1C2=C(SCCS2)C(O)N1c1ccc2c(Cl)ccnc2n1` (configuration not stated) it was 300 to 305 °C; in that of `O=C(CCN1CCC2(CC1)OC(=O)c1ccccc12)c1ccccc1`, 108 to 110 °C. In the case of `COc1ccc(-c2nc(CC(=O)O)c(-c3ccco3)o2)cc1` it was 177 to 178 °C; in that of `CC(=O)N[C@H]1CC[C@H](c2ccc(S(N)(=O)=O)cc2)CC1`, 268 to 269 °C; in that of `N#Cc1cn(-c2c(Cl)cc(C(F)(F)F)cc2Cl)cc1I`, 118 to 120 °C.

Turning to `O=C(c1cccs1)c1cnn2c(-c3cccc(NCc4ccoc4)c3)ccnc12`, the melting point lay in the range of 140 to 144 °C. The molecule `Fc1ccc(Nc2ncnc3[nH]ccc23)cc1Cl` registered a melting point of 274 to 275 °C. In the case of `COC(CN(C)C(=O)Nc1nnc(C(C)Oc2ccc(Cl)cc2Cl)s1)OC` (configuration not stated) it was 125 to 127 °C. As for `COc1ccc(SC2(CCCC#Cc3ccc(Cl)cc3)SC(=O)NC2=O)cc1` (configuration not stated), the melting point is 106 to 109 °C.

As to `Cn1nccc1COc1nn2c(-c3ccccc3F)nnc2cc1C1CCC1`, the melting point lay in the range of 184 to 186 °C. In the case of `CC(=O)SCCS(=O)(=O)N1CCC[C@H]1C(=O)OC(C)(C)C` it was 46 to 50 °C; in that of `Cc1ccc2c(c1)CNC(=O)CC2`, 174 to 175 °C; in that of `Cc1nc2cc3c(cc2s1)C1(CO3)C(=O)N(CCC(C)C)c2ccccc21` (configuration not stated), 137 to 138 °C. As to `N#Cc1cc([N+](=O)[O-])cc(O)c1O`, the melting point was 186 to 188 °C. With `COc1cccc(C2C(CO)CC(=O)N2c2ccccc2)c1` (configuration not stated), the melting point is 123 to 126 °C.

In turn, `O=C(Nc1ccc(-n2nc(C(F)(F)F)cc2C(F)(F)F)cc1)c1cccc(C(F)(F)F)c1` returned a melting point of 143 to 145 °C. In the case of `Cc1nc2c(s1)CC(CO)CC2` (configuration not stated) it was 101 to 102 °C. In the case of `O=S(=O)(CC(F)(F)F)c1nc2ccccc2[nH]1` it was 172 to 174 °C. As to `FC(F)(F)c1ccc2c(c1)C(c1ccccc1)=NCc1nncn1-2`, the melting point fell in the range of 258 to 260 °C. In the case of `Cc1nc(-c2ccc(OCc3cccnc3)cc2)no1` it was 55 to 56 °C; in that of `CC(C)(C)c1cc(N)cc(C(C)(C)C)c1O`, 105 to 108 °C.

The molecule `O=C(O)CCCS(=O)(=O)NC(=O)CCC(F)(F)C(F)(F)C(F)(F)C(F)(F)C(F)(F)C(F)(F)F` came in with a melting point of 175 to 180 °C. In the case of `Nc1ncc(Oc2ccc(Cl)cc2)c(N[C@H]2CC[C@H](O)CC2)n1`, the melting point is 154 to 155 °C.

As for `Oc1ccc(-c2c3ccc(O)cc3cc3sc4ccccc4c23)cc1`, the melting point was in the range of 233 to 235 °C. In the case of `Clc1ccc2c(c1)N(c1ncnc3cnccc13)CC2` it was 194 to 196 °C. `CCC1(CCCCCC(=O)O)C(=O)NC(=O)NC1=O`: the melting point was in the range of 185 to 192 °C. For the molecule `ON=C1CCC(c2ccccc2F)c2ccccc21` (configuration not stated), the melting point turned out to be 120 °C. Consider `CC(C)(C)OC(=O)NCCc1ccc(OCCC2Oc3cc([N+](=O)[O-])ccc3N(Cc3cccc(Cl)c3)C2=O)cc1` (configuration not stated), for which the melting point was 82 to 85 °C. In the case of `CCCCCCOc1ccc(CC2SC(=O)NC2=O)cc1` (configuration not stated) it was 52 to 54 °C; in that of `O=C(NCc1ccc(Cl)cc1)c1cnc2c(F)cc(-c3cccs3)cc2c1O`, 298 to 301 °C; in that of `CCOC(=O)c1ncn2c1c(=O)[nH]c1cc(S(C)(=O)=O)ccc12`, more than 300 °C.

Consider `COc1ccc(C(=O)c2c(N)sc3c2CCCC3)c2ccccc12`, for which the melting point was 227 to 229 °C. In the case of `CC(C)c1nnn(-c2c(Cl)cccc2Cl)c1COc1ccc(N(C)C(=O)c2ccc(C(=O)O)cc2)c(C(F)(F)F)n1` it was 218 to 219 °C; in that of `c1cc(-c2n[nH]c3c2Cc2ccc(CN4CCNCC4)cc2-3)cs1`, 125 to 130 °C.

Take `CCCCCCCCCCC[C@H](CC(=O)N[C@@H](CO)C(=O)OCc1ccccc1)OC(=O)CCCCCC`: the melting point was 46 to 48 °C. Take `Nc1ncnc2c1nc(OC(=O)OCc1ccccc1)n2Cc1ccccc1`: the melting point was more than 300 °C. In the case of `N#CNC(=S)Nc1ccc(C#N)cc1` it was more than 250 °C; in that of `COc1ccc(C2CN(O)C3(C)CCCCC23)cc1OC` (configuration not stated), 147 to 149 °C; in that of `C#CCCN1CCC(O)(Cc2ccccc2)CC1`, 51 to 53 °C. With `C=CS(=O)(=O)CC(COCCCCCCCCCCCCCCCCCC)OC` (configuration not stated), the melting point is 47 to 49 °C. Take `O=C(O)CC1(c2ccccc2)Oc2ccccc2O1`: the melting point lay within 152 to 153 °C.

Molecule `CN(CCNc1ccc2nc(NC(=O)c3ccc(C(C)(C)C)cc3)cn2n1)C(=O)OC(C)(C)C` showed a melting point of 200 to 201 °C.

`O=Cc1cc(C(=O)CCl)c[nH]1` had a melting point of 178 to 179 °C. In the case of `CC1(C)OC(=O)Nc2ccc(I)cc21` it was 196 to 197 °C. In the case of `CN(C(=O)N(C)c1ccc(C(=O)O)cc1)c1ccc(C(=O)O)cc1` it was 291 to 292 °C; in that of `O=C1OC(c2ccc(F)cc2)c2ncccc21` (configuration not stated), 116 to 118 °C; in that of `CCc1c(Cl)c(CC)c(-c2c(O)c(C)nn(C)c2=O)c(CC)c1Cl`, 266 to 267 °C. In the case of `COc1cc2c(cc1OC)CCCC(C(=O)N1CCN(Cc3cc(OC)c(OC)c(OC)c3)C(C(=O)O)C1)=C2` (configuration not stated) it was 142 to 144 °C. As for `CC1(C2CCCC2)Cc2cc(OCC(=O)O)c(Cl)c(Cl)c2C1O` (configuration not stated), the melting point was 129 to 131 °C.

Turning to `Cc1ccc(C(O)(c2ccccc2)c2ccncc2)cc1` (configuration not stated), the melting point fell in the range of 192 to 195 °C. In the case of `CC1(C)CC(=O)Nc2cc3nc(-c4ccc(C#N)cc4)[nH]c3cc21` it was 228 to 233 °C.

Turning to `Oc1nc(Cl)c(Cl)cc1Cl`, the melting point is 168 to 170 °C.
